What follows are molecules tested against T1, human apelin receptor (Homo sapiens, UniProt P35414) (assay: Measurement of apelin receptor agonist activity (cell-based assay determining the amount of intracellular cAMP)). Conditions: CHO cells stably expressing the human apelin receptor, Forskolin 10 μM, 30 minutes, 100% efficacy = [Pyr1]-apelin-13 0.300 μM, concentration giving 50% efficacy.
T1 construct: host or cells: CHO cells
T1 sequence (P35414 1-380): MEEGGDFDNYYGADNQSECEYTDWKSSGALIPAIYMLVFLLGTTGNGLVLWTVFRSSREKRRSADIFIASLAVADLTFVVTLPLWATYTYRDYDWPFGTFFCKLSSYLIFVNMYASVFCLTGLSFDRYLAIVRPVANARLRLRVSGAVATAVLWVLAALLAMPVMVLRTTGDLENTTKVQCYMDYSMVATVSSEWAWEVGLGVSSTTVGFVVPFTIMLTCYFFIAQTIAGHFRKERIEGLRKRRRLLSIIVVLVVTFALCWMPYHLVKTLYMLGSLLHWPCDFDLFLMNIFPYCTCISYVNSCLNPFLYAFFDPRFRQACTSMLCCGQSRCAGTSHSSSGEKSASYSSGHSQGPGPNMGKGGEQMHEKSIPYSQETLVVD
Experimental: Measurement of Apelin Receptor Agonist Activity
The apelin receptor agonist activity of the compound represented by formula (I) or (II) of the present invention was measured by cell-based assay for determining the amount of intracellular cAMP.
CHO cells (DiscoveRx Corp.) stably expressing the human apelin receptor were inoculated to wells of a microtiter plate and cultured overnight at 37° C. under conditions of 5% CO2.
Each test compound and Forskolin were added to the wells at the same time. Specifically, the test compound dissolved in DMSO was diluted with a Forskolin-containing buffer [DMEM/F-12, HEPES, no phenol red (#11039, GIBCO)] to prepare a mixed solution containing the test compound at a final concentration of […] (common ratio: 3, serial dilution: 11), Forskolin at a final concentration of 10 μM, and DMSO at a final concentration of 0.3% v/v, which was then added to the wells (N═4).
After 30 minutes, the cells were lysed, and HitHunter cAMP XS+ Assay #90-0075L (DiscoveRx Corp.) was added to the cell lysate. The mixture was left overnight, and the resulting chemiluminescence signals were then detected using Analyst GT (Molecular Devices LLC.) to determine the amount of cAMP.
The amount of cAMP determined by the addition of a positive control [Pyr1]-apelin-13 (final concentration: 0.300 μM) and Forskolin (final concentration: 10 μM) at the same time was used as an index to define 100% efficacy. The amount of cAMP determined by the addition of Forskolin (final concentration: 10 μM) alone was used as an index to define 0% efficacy.
A dose response curve was prepared from the final concentration of the test compound and the determined amount of cAMP using Sigmaplot 12.0.

Question: `COC(=O)C(Sc1nnc(-c2ccc(C)o2)n1-c1c(OC)cccc1OC)c1ccccn1` (racemic) [Example 89, Methyl {[4-(2,6-dimethoxyphenyl)-5-(5-methylfuran-2-yl)-4H-1,2,4-triazol-3-yl]sulfanyl}(pyridin-2-yl)acetate] was tested. Which EC50 did it give?
Answer: 261 nM

Question: With `COc1cccc(OC)c1-n1c(S)nnc1-c1ccc(C)o1` [Example 1, 4-(2,6-Dimethoxyphenyl)-5-(5-methylfuran-2-yl)-4H-1,2,4-triazole-3-thiol] as the molecule, how does the EC50 read?
Answer: 31 nM

Question: For `COc1cccc(OC)c1-n1c(SCc2cc(=O)n3cc(C)ccc3n2)nnc1-c1ccc(C)o1` [Example 2, 2-({[4-(2,6-Dimethoxyphenyl)-5-(5-methylfuran-2-yl)-4H-1,2,4-triazol-3-yl]sulfanyl}methyl)-7-methyl-4H-pyrido[1,2-a]pyrimidin-4-one], which EC50 is on record?
Answer: 1 nM

Question: `COc1cccc(OC)c1-n1c(SCc2cc(=O)n3cc(Cl)ccc3n2)nnc1-c1ccc(C)o1` [Example 3, 7-Chloro-2-({[4-(2,6-dimethoxyphenyl)-5-(5-methylfuran-2-yl)-4H-1,2,4-triazol-3-yl]sulfanyl}methyl)-4H-pyrido[1,2-a]pyrimidin-4-one] was tested. Which EC50 did it give?
Answer: 2 nM

Question: For `CCOC(=O)CSc1nnc(-c2ccc(C)o2)n1-c1c(OC)cccc1OC` [Example 4, Ethyl {[4-(2,6-dimethoxyphenyl)-5-(5-methylfuran-2-yl)-4H-1,2,4-triazol-3-yl]sulfanyl}acetate], which EC50 is on record?
Answer: 122 nM

Question: `COc1cccc(OC)c1-n1c(SCC(=O)O)nnc1-c1ccc(C)o1` [Example 5, {[4-(2,6-Dimethoxyphenyl)-5-(5-methylfuran-2-yl)-4H-1,2,4-triazol-3-yl]sulfanyl}acetic acid] was tested. Which EC50 did it give?
Answer: 26 nM

Question: How did the EC50 turn out when `COc1cccc(OC)c1-n1cnnc1-c1ccc(C)o1` [Example 6, 4-(2,6-Dimethoxyphenyl)-3-(5-methylfuran-2-yl)-4H-1,2,4-triazole] was run?
Answer: 703 nM

Question: `COc1cccc(OC)c1-n1c(CO)nnc1-c1ccc(C)o1` [Example 7, [4-(2,6-Dimethoxyphenyl)-5-(5-methylfuran-2-yl)-4H-1,2,4-triazol-3-yl]methanol] was tested. Which EC50 did it give?
Answer: 815 nM

Question: For `CCOC(=O)/C=C/c1nnc(-c2ccc(C)o2)n1-c1c(OC)cccc1OC` [Example 8, Ethyl (2E)-3-[4-(2,6-dimethoxyphenyl)-5-(5-methylfuran-2-yl)-4H-1,2,4-triazol-3-yl]prop-2-enoate], which EC50 is on record?
Answer: 1570 nM

Question: How did the EC50 turn out when `COc1cccc(OC)c1-n1c(/C=C/C(=O)O)nnc1-c1ccc(C)o1` [Example 9, (2E)-3-[4-(2,6-Dimethoxyphenyl)-5-(5-methylfuran-2-yl)-4H-1,2,4-triazol-3-yl]prop-2-enoic acid] was run?
Answer: 18 nM

Question: With `COc1cccc(OC)c1-n1c(S)nnc1-c1cccs1` [Example 10, 4-(2,6-Dimethoxyphenyl)-5-(thiophen-2-yl)-4H-1,2,4-triazole-3-thiol] as the molecule, how does the EC50 read?
Answer: 192 nM

Question: With `COc1cccc(OC)c1-n1c(SCc2cc(=O)n3cc(C)ccc3n2)nnc1-c1cccs1` [Example 11] as the molecule, how does the EC50 read?
Answer: 5 nM

Question: For `CCOC(=O)CCc1nnc(-c2ccc(C)o2)n1-c1c(OC)cccc1OC` [Example 12, Ethyl 3-[4-(2,6-dimethoxyphenyl)-5-(5-methylfuran-2-yl)-4H-1,2,4-triazol-3-yl]propanoate], which EC50 is on record?
Answer: 701 nM

Question: With `COc1cccc(OC)c1-n1c(CCC(=O)O)nnc1-c1ccc(C)o1` [Example 13, 3-[4-(2,6-Dimethoxyphenyl)-5-(5-methylfuran-2-yl)-4H-1,2,4-triazol-3-yl]propanoic acid] as the molecule, how does the EC50 read?
Answer: 159 nM

Question: For `COc1cccc(OC)c1-n1c(SCc2cc(=O)[nH]c(=O)[nH]2)nnc1-c1ccc(C)o1` [Example 14, 6-({[4-(2,6-Dimethoxyphenyl)-5-(5-methylfuran-2-yl)-4H-1,2,4-triazol-3-yl]sulfanyl}methyl)pyrimidine-2,4(1H,3H)-dione], which EC50 is on record?
Answer: 424 nM

Question: `COc1cccc(OC)c1-n1c(SCc2cc(=O)n(C)c(=O)n2C)nnc1-c1ccc(C)o1` [Example 15, 6-({[4-(2,6-Dimethoxyphenyl)-5-(5-methylfuran-2-yl)-4H-1,2,4-triazol-3-yl]sulfanyl}methyl)-1,3-dimethylpyrimidine-2,4(1H,3H)-dione] was tested. Which EC50 did it give?
Answer: 164 nM

Question: For `COc1cccc(OC)c1-n1c(SCc2cc(=O)n3nccc3[nH]2)nnc1-c1ccc(C)o1` [Example 16, 5-({[4-(2,6-Dimethoxyphenyl)-5-(5-methylfuran-2-yl)-4H-1,2,4-triazol-3-yl]sulfanyl}methyl)pyrazolo[1,5-a]pyrimidin-7(4H)-one], which EC50 is on record?
Answer: 314 nM

Question: With `CCc1nnc(-c2ccc(C)o2)n1-c1c(OC)cccc1OC` [Example 17, 4-(2,6-Dimethoxyphenyl)-3-ethyl-5-(5-methylfuran-2-yl)-4H-1,2,4-triazole] as the molecule, how does the EC50 read?
Answer: 1410 nM

Question: With `COc1cccc(OC)c1-n1c(SCc2cc[nH]c(=O)c2)nnc1-c1ccc(C)o1` [Example 18, 4-({[4-(2,6-Dimethoxyphenyl)-5-(5-methylfuran-2-yl)-4H-1,2,4-triazol-3-yl]sulfanyl}methyl)pyridin-2(1H)-one] as the molecule, how does the EC50 read?
Answer: 561 nM

Question: Which EC50 does the source give for `COc1cccc(OC)c1-n1c(/C=C/C(N)=O)nnc1-c1ccc(C)o1` [Example 19, (2E)-3-[4-(2,6-Dimethoxyphenyl)-5-(5-methylfuran-2-yl)-4H-1,2,4-triazol-3-yl]prop-2-enamide] here?
Answer: 171 nM

Question: With `COc1cccc(OC)c1-n1c(/C=C/C(C)=O)nnc1-c1ccc(C)o1` [Example 20, (3E)-4-[4-(2,6-Dimethoxyphenyl)-5-(5-methylfuran-2-yl)-4H-1,2,4-triazol-3-yl]but-3-en-2-one] as the molecule, how does the EC50 read?
Answer: 729 nM

Question: For `COc1cccc(OC)c1-n1c(/C=C/C(=O)N(C)C)nnc1-c1ccc(C)o1` [Example 21, (2E)-3-[4-(2,6-Dimethoxyphenyl)-5-(5-methylfuran-2-yl)-4H-1,2,4-triazol-3-yl]-N,N-dimethylprop-2-enamide], which EC50 is on record?
Answer: 539 nM

Question: `COc1cccc(OC)c1-n1c(SCCCC(=O)O)nnc1-c1ccc(C)o1` [Example 22, 4-{[4-(2,6-Dimethoxyphenyl)-5-(5-methylfuran-2-yl)-4H-1,2,4-triazol-3-yl]sulfanyl}butanoic acid] was tested. Which EC50 did it give?
Answer: 87 nM

Question: How did the EC50 turn out when `COc1cccc(OC)c1-n1c(/C=C/C(C)O)nnc1-c1ccc(C)o1` (stereo not drawn) [Example 23, (3E)-4-[4-(2,6-Dimethoxyphenyl)-5-(5-methylfuran-2-yl)-4H-1,2,4-triazol-3-yl]but-3-en-2-ol] was run?
Answer: 271 nM

Question: For `COc1cccc(OC)c1-n1c(CCC(C)=O)nnc1-c1ccc(C)o1` [Example 24, 4-[4-(2,6-Dimethoxyphenyl)-5-(5-methylfuran-2-yl)-4H-1,2,4-triazol-3-yl]butan-2-one], which EC50 is on record?
Answer: 751 nM

Question: How did the EC50 turn out when `COc1cccc(OC)c1-n1c(CCC(C)O)nnc1-c1ccc(C)o1` (stereo not drawn) [Example 25, 4-[4-(2,6-Dimethoxyphenyl)-5-(5-methylfuran-2-yl)-4H-1,2,4-triazol-3-yl]butan-2-ol] was run?
Answer: 1720 nM

Question: `COc1cccc(OC)c1-n1c(SCC(=O)O)nnc1-c1ccc(Br)o1` [Example 26, {[5-(5-Bromofuran-2-yl)-4-(2,6-dimethoxyphenyl)-4H-1,2,4-triazol-3-yl]sulfanyl}acetic acid] was tested. Which EC50 did it give?
Answer: 57 nM

Question: Which EC50 does the source give for `COc1cccc(OC)c1-n1c(SCC(=O)O)nnc1-c1cccnc1` [Example 27, {[4-(2,6-Dimethoxyphenyl)-5-(pyridin-3-yl)-4H-1,2,4-triazol-3-yl]sulfanyl}acetic acid] here?
Answer: 2870 nM

Question: With `COc1cccc(OC)c1-n1c(SCC(=O)O)nnc1-c1ccccc1` [Example 28, {[4-(2,6-Dimethoxyphenyl)-5-phenyl-4H-1,2,4-triazol-3-yl]sulfanyl}acetic acid] as the molecule, how does the EC50 read?
Answer: 1420 nM

Question: With `CCCCc1nnc(SCC(=O)O)n1-c1c(OC)cccc1OC` [Example 29, {[5-Butyl-4-(2,6-dimethoxyphenyl)-4H-1,2,4-triazol-3-yl]sulfanyl}acetic acid] as the molecule, how does the EC50 read?
Answer: 812 nM

Question: `COc1cccc(OC)c1-n1c(SCC(=O)O)nnc1-c1cccs1` [Example 30, {[4-(2,6-Dimethoxyphenyl)-5-(thiophen-2-yl)-4H-1,2,4-triazol-3-yl]sulfanyl}acetic acid] was tested. Which EC50 did it give?
Answer: 332 nM

Question: `CCc1cccc(CC)c1-n1c(SCC(=O)O)nnc1-c1ccc(C)o1` [Example 31, {[4-(2,6-Diethylphenyl)-5-(5-methylfuran-2-yl)-4H-1,2,4-triazol-3-yl]sulfanyl}acetic acid] was tested. Which EC50 did it give?
Answer: 174 nM

Question: `Cc1ccc(-c2nnc(SCC(=O)O)n2-c2c(Cl)cccc2Cl)o1` [Example 32, {[4-(2,6-Dichlorophenyl)-5-(5-methylfuran-2-yl)-4H-1,2,4-triazol-3-yl]sulfanyl}acetic acid] was tested. Which EC50 did it give?
Answer: 3980 nM

— US11155525B2 (Sanford Burnham Prebys Medical Discovery Institute, priority 2015, dated 2021)
